Data set [1] is described as follows: Microsomal incubations of 3MI: production of 3MI metabolites by pig liver microsomes (HPLC). Conditions: for Maximum rate of production: highest of 30 pig liver microsome samples; for Minimum rate of production: lowest of 30 pig liver microsome samples; for Rate of Production (pmol/mg prot./min) ±SD: metabolite formed from 0.4 mM 3MI, mean ±SD, n = 30. Type of data set: in vitro ADME. How it is done: Preparation of microsomes.
Microsomal incubations. […] C. (production of metabolites was determined to be linear over a range of 10 to 40 min). Incubation volumes were 0.5 ml. Reactions were started by the addition of NADPH after 3-minute preincubation periods at 37° C., and stopped with 0.5 ml of ice-cold acetonitrile. Incubations of all 30 samples were run in duplicate and for control incubations NADPH was omitted. […] A 50 μl aliquot of the clear supernatant was analyzed by high-performance liquid chromatography (HPLC).
Analytical chromatography. […] Absorbance was monitored at 250 nm; fluorescence was monitored at excitation and emission wavelengths of 286 and 350 nm, respectively. HPLC analysis for 3MI metabolites was conducted immediately after the incubations. Metabolites were identified by comparison of retention times, and co-injection of standards (spiking the metabolite mixture with authentic standards).
(Liver microsomes are vesicles of endoplasmic reticulum, rich in cytochrome P450 enzymes.)

The conditions of data set [2]: rat liver microsomes incubated with 3-MI; cited from earlier work.
Data set [3] has as its system aldehyde oxidase. The data set can be described thus: Hepatic aldehyde oxidase activity measured as formation of HMOI from HMI by cytosol. It counts as in vitro ADME, pig. From the text:
Preparation of porcine liver cytosol.
Chromatographic analysis. […] Absorbance was monitored at 250 nm.

Data set [4] is described as follows: Measurement of 3MI fat content in backfat (colorimetric assay). Type of data set: in vivo, pig. From the text:
Measurement of 3MI fat content. For the quantitation of the 3MI fat content, a sample of backfat was taken from each pig and its 3MI content measured with a colorimetric assay (Mortensen and Sorensen, 1984). All analysis were done in duplicate.

Data set [5] is described as follows: Skatole level in backfat of CYP2A6 deletion mutant and wild type pigs (colorimetric assay). Type of data set: in vivo, pig. Particulars: sample with CYP2A6 deletion mutation. As to the method:
A backfat sample was collected at the midline point of 11th rib and frozen at −20° C. until assayed for skatole. The skatole content was measured with a colorimetric assay, according to the method described by Gonzalo et al. (2000).

The nature of data set [6]: Stability of isolated UV-1 in acetonitrile:water solution at room temperature (HPLC at 7-day intervals). It counts as physicochemical. As to the method:
UV Spectroscopy. The UV spectrum of the metabolites identified on the basis of their retention times on HPLC (HMOI, 3MOI, I3C, and 2-aminoacetophenone) were identical to those of authentic standards. Spectra of metabolites were recorded using water as solvent, and the wavelengths of maximal absorption were as follows: HMOI: λmax (nm): 208, 253; 3MOI: λmax (nm): 205, 252; I3C: λmax (nm): 221, 278; 2-aminoacetophenone: λmax (nm): 228, 257. The UV spectrum of 3-methylindole was: λmax (nm): 224, 281. The UV spectrum of UV-1 metabolite was: λmax (nm): 204, 238. […] Isolated UV-1 was kept in acetonitrile:water solution at room temperature and the solution was analyzed by HPLC at 7-day intervals for 6 weeks. After 6 weeks only about 25% of the original compound remained and it was observed that UV-1 was converted into 3MOI.

Data set [7] concerns aldehyde oxidase. Particulars: up to 1.0 mM in the assay mixture.
In data set [8] the test system is aldehyde oxidase. As to the kind of experiment: in vitro. Conditions: male, pig, porcine liver cytosol, pH 7.4, probe HMI (conversion to HMOI).

Data on 11 molecules can be found in US7202035B2, “Genetic markers for skatole metabolism” (University of Guelph, priority 1999, dated 2007).

Structures are written as SMILES. “And” between values parts separate entries of the source, which are not always exact repeats. Equal entries are not always repeated. “Also recorded” adds a separate entry of the source.

Regarding `NCC(=O)c1ccccc1` [2-aminoacetophenone], in data set [1], the “Maximum rate of production” value was determined as 12.7 pmol/mg prot./min and the “Minimum rate of production” value was 3.4 pmol/mg prot./min. Also, in data set [1] (pig liver microsomes), the “Rate of Production (pmol/mg prot./min) ±SD” value amounted to 7.8 ± 2.4 pmol/mg prot./min and the “Percentage of all 3MI metabolites produced (average)” value (“Percentage … (average)” for short) stood at 0.5%. In addition, in data set [2], the “Percentage of the metabolites formed” value was 12%.
For the molecule `O=CNCC(=O)c1ccccc1` [2-formamidoacetophenone], the “Percentage of the metabolites formed” value in data set [2] was 33%.
With `CC1(O)C(=O)Nc2ccccc21` (centres unmarked) [3-hydroxy-3-methyloxindole], in data set [1], the “Maximum rate of production” value is recorded as 516.5 pmol/mg prot./min and the “Minimum rate of production” value turned out to be 118.9 pmol/mg prot./min. In data set [1] (pig liver microsomes), the “Rate of Production (pmol/mg prot./min) ±SD” value is listed as 272.4 ± 91.6 pmol/mg prot./min and the “Percentage … (average)” value is on record as 18.5%. For the same molecule, the “Mean aldehyde oxidase activity (nmol HMOI/mg prot./min)” value (from here on “Mean aldehyde oxidase activity”) in data set [3] (High accumulator pigs, n 7) turned out to be 0.80 nmol HMOI/mg prot./min. The “Mean aldehyde oxidase activity” value in data set [3] (Low accumulator pigs, n 8) was 2.73 nmol HMOI/mg prot./min. In addition, the “Mean aldehyde oxidase activity” value in data set [3] (Moderate accumulator pigs, n 15) was 1.40 nmol HMOI/mg prot./min. In data set [3] (all samples, 30 pigs), the “AO activity, mean” value came to 1.27 nmol HMOI/mg protein/min and the “AO activity, range” value was in the range of 0.25 to 3.53 nmol HMOI/mg protein/min.
Turning to `Cc1c[nH]c2ccccc12` [3-methylindole], the “Mean 3-methylindole content (mg/kg) in fat” value turned out to be 0.24 mg/kg in data set [4] (High accumulator pigs (0.2 mg/kg or more), n 7); 0.09 mg/kg in data set [4] (Low accumulator pigs (0.1 mg/kg or less), n 8); 0.15 mg/kg in data set [4] (Moderate accumulator pigs (0.11–0.19 mg/kg), n 15). Besides, the “3MI fat content, mean” value in data set [4] (all samples, 30 pigs) is recorded as 0.15 mg/kg. Also, the “3MI fat content, range” value in data set [4] (all samples, 30 pigs) lay in the range of 0.07 to 0.3 mg/kg. In addition, the “Skatole level in fat versus wild type samples” value in data set [5] was “much higher”.
Take `CC1C(=O)Nc2ccccc21` (centres unmarked) [3-methyloxindole]: in data set [1], the “Maximum rate of production” value was determined as 700.8 pmol/mg prot./min and the “Minimum rate of production” value is 234.4 pmol/mg prot./min. Besides, in data set [1] (pig liver microsomes), the “Rate of Production (pmol/mg prot./min) ±SD” value came to 420.9 ± 118.1 pmol/mg prot./min and the “Percentage … (average)” value came out at 27.9%. The “Percentage of the metabolites formed” value in data set [2] is listed as 5%.
On to `Cc1c[nH]c2ccc(O)cc12` [5-OH-3-methylindole], for which, in data set [1], the “Maximum rate of production” value was 27.3 pmol/mg prot./min and the “Minimum rate of production” value came out at 0.7 pmol/mg prot./min. Also, in data set [1] (pig liver microsomes), the “Rate of Production (pmol/mg prot./min) ±SD” value is on record as 5.1 ± 5.8 pmol/mg prot./min and the “Percentage … (average)” value stood at 0.3%. Besides, the “Rate of Production (pmol/mg prot./min) ±SD” value in data set [1] (pig liver microsomes, listed as 5-OH-3MI) stood at 5.1 pmol/mg prot./min.
Take `Cc1c[nH]c2cc(O)ccc12` [6-OH-3-methylindole, 6-OH-3-methylindole]: the “Average rate of production relative to the 5 isomer” value in data set [1] (6-OH-3MI versus 5-OH-3MI, pig liver microsomes) was “approximately eleven times greater”. Moreover, the “Maximum rate of production” value in data set [1] was 213.7 pmol/mg prot./min. Further, in data set [1] (pig liver microsomes), the “Rate of Production (pmol/mg prot./min) ±SD” value turned out to be 58.4 ± 47.2 pmol/mg prot./min and the “Percentage … (average)” value turned out to be 4.9%.
For `OCc1c[nH]c2ccccc12` [Indole-3-carbinol, indole-3-carbinol], in data set [1], the “Maximum rate of production” value is listed as 85.7 pmol/mg prot./min and the “Minimum rate of production” value worked out at 12.1 pmol/mg prot./min. The “Rate of Production (pmol/mg prot./min) ±SD” value in data set [1] (pig liver microsomes) is 37.1 ± 15.8 pmol/mg prot./min.
Regarding `CC1(O)C=Nc2ccccc21` (centres unmarked) [UV-1, 3-hydroxy-3-methylindolenine], the “Stability (in words)” value in data set [6] is recorded as “unstable compound”. In data set [6] (acetonitrile:water solution, room temperature, after 6 weeks, converted into 3MOI), the Original compound remaining entry is recorded as “about 25%”. In addition, in data set [1], the “Maximum rate of production” value is 1556.3 pmol/mg prot./min and the “Minimum rate of production” value worked out at 180.5 pmol/mg prot./min. In data set [1] (pig liver microsomes), the “Rate of Production (pmol/mg prot./min) ±SD” value is 750.7 pmol/mg prot./min and 750.7 ± 414.5 pmol/mg prot./min; the “Percentage … (average)” value worked out at 45.1%.
Consider `Oc1ncnc2[nH]ncc12` [allopurinol], for which, in data set [7], the “Effect on the conversion of HMI to HMOI” value was “did not affect; also recorded: lack of inhibition”.
In data set [8], `CCN(CC)CCCC(C)Nc1c2ccc(Cl)cc2nc2ccc(OC)cc12` (centres unmarked) [quinacrine] yielded an activity at 10 min, 50 µM of 75.5% and an activity at 10 min, 1 mM of 43.4%.
